# Reference: patent US20240041991A1, “STABLE LIQUID DISPERSINB COMPOSITIONS” (KANE BIOTECH INC., priority 2020, published 2024)
# Read-outs that look alike come from different tables or passages of the source. Marks after values point to notes of the source that are not given here.
# System: DispersinB
# Assay type: biochemical, Aggregatibacter actinomycetemcomitans
# Details: for % enzymatic activity of DispersinB (Mean): polyol % as in label; for temperature stabilizing effect on DispersinB at elevated temperatures: 42° C., 52° C., and 62° C.
# Description: Samples from each formula was incubated at 3 different temperatures (42° C., 52° C. and 62° C.) for 3 hours. Following a 3 hour incubation, the samples were brought to room temperature for enzymatic activity assay.
# Two-tailed paired T-test was performed by to compare each polyol containing treatment with the treatment devoid of polyol. Treatment with probability values (p) less than 5% (0.05) was considered significant.
smiles,measurement,setting,value
"OCC(O)CO [glycerol, Propane-1,2,3-triol]",% enzymatic activity of DispersinB (Mean),"4° C., freshly made control without polyol = 100%, listed as Glycerol 1%",117* %
same,% enzymatic activity of DispersinB (Mean),"4° C., freshly made control without polyol = 100%, listed as Glycerol 2.5%",114* %
same,% enzymatic activity of DispersinB (Mean),"4° C., freshly made control without polyol = 100%, listed as Glycerol 5%",116* %
same,% enzymatic activity of DispersinB (Mean),"4° C., freshly made control without polyol = 100%, listed as Glycerol 10%",124* %
same,% enzymatic activity of DispersinB (Mean),"4° C., freshly made control without polyol = 100%, listed as Glycerol 20%",128* %
same,% enzymatic activity of DispersinB (Mean),"4° C., freshly made control without polyol = 100%, listed as Glycerol 30%",131* %
same,% enzymatic activity of DispersinB (Mean),"42° C. for 3 hours, control without polyol = 100%, listed as Glycerol 1%",94* %
same,% enzymatic activity of DispersinB (Mean),"42° C. for 3 hours, control without polyol = 100%, listed as Glycerol 2.5%",98* %
same,% enzymatic activity of DispersinB (Mean),"42° C. for 3 hours, control without polyol = 100%, listed as Glycerol 5%",90* %
same,% enzymatic activity of DispersinB (Mean),"42° C. for 3 hours, control without polyol = 100%, listed as Glycerol 10%",115* %
same,% enzymatic activity of DispersinB (Mean),"42° C. for 3 hours, control without polyol = 100%, listed as Glycerol 20%",112* %
same,% enzymatic activity of DispersinB (Mean),"42° C. for 3 hours, control without polyol = 100%, listed as Glycerol 30%",116* %
same,temperature stabilizing effect on DispersinB at elevated temperatures,,exhibited temperature stabilizing effect
same,% enzymatic activity of DispersinB (Mean),"52° C. for 3 hours, control without polyol = 100%, listed as Glycerol 5%",16* %
same,% enzymatic activity of DispersinB (Mean),"52° C. for 3 hours, control without polyol = 100%, listed as Glycerol 10%",31* %
same,% enzymatic activity of DispersinB (Mean),"52° C. for 3 hours, control without polyol = 100%, listed as Glycerol 20%",92* %
same,% enzymatic activity of DispersinB (Mean),"52° C. for 3 hours, control without polyol = 100%, listed as Glycerol 30%",93* %
"O[C@H]1[C@H](O)[C@@H](O)[C@H](O)[C@@H](O)[C@H]1O [inositol, Inositol]",% enzymatic activity of DispersinB (Mean),"4° C., freshly made control without polyol = 100%, listed as 0.25% Inositol",104%
same,% enzymatic activity of DispersinB (Mean),"4° C., freshly made control without polyol = 100%, listed as 0.5% Inositol",101%
same,% enzymatic activity of DispersinB (Mean),"4° C., freshly made control without polyol = 100%, listed as 1% Inositol",101%
same,% enzymatic activity of DispersinB (Mean),"4° C., freshly made control without polyol = 100%, listed as 2% Inositol",102%
same,% enzymatic activity of DispersinB (Mean),"4° C., freshly made control without polyol = 100%, listed as 4% Inositol",107* %
same,% enzymatic activity of DispersinB (Mean),"4° C., freshly made control without polyol = 100%, listed as 6% Inositol",112* %
same,% enzymatic activity of DispersinB (Mean),"4° C., freshly made control without polyol = 100%, listed as 8% Inositol",118* %
same,% enzymatic activity of DispersinB (Mean),"4° C., freshly made control without polyol = 100%, listed as 10% Inositol",115* %
same,% enzymatic activity of DispersinB (Mean),"4° C., freshly made control without polyol = 100%, listed as 12% Inositol",118* %
same,% enzymatic activity of DispersinB (Mean),"4° C., freshly made control without polyol = 100%, listed as 14% Inositol",124* %
same,% enzymatic activity of DispersinB (Mean),"42° C. for 3 hours, control without polyol = 100%, listed as 0.25% Inositol",96* %
same,% enzymatic activity of DispersinB (Mean),"42° C. for 3 hours, control without polyol = 100%, listed as 0.5% Inositol",97* %
same,% enzymatic activity of DispersinB (Mean),"42° C. for 3 hours, control without polyol = 100%, listed as 1% Inositol",99* %
same,% enzymatic activity of DispersinB (Mean),"42° C. for 3 hours, control without polyol = 100%, listed as 2% Inositol",101* %
same,% enzymatic activity of DispersinB (Mean),"42° C. for 3 hours, control without polyol = 100%, listed as 4% Inositol",106* %
same,% enzymatic activity of DispersinB (Mean),"42° C. for 3 hours, control without polyol = 100%, listed as 6% Inositol",112* %
same,% enzymatic activity of DispersinB (Mean),"42° C. for 3 hours, control without polyol = 100%, listed as 8% Inositol",126* %
same,% enzymatic activity of DispersinB (Mean),"42° C. for 3 hours, control without polyol = 100%, listed as 10% Inositol",113* %
same,% enzymatic activity of DispersinB (Mean),"42° C. for 3 hours, control without polyol = 100%, listed as 12% Inositol",118* %
same,% enzymatic activity of DispersinB (Mean),"42° C. for 3 hours, control without polyol = 100%, listed as 14% Inositol",115%
same,temperature stabilizing effect on DispersinB at elevated temperatures,,exhibited temperature stabilizing effect
same,% enzymatic activity of DispersinB (Mean),"52° C. for 3 hours, control without polyol = 100%, listed as 0.5% Inositol",1* %
same,% enzymatic activity of DispersinB (Mean),"52° C. for 3 hours, control without polyol = 100%, listed as 1% Inositol",3* %
same,% enzymatic activity of DispersinB (Mean),"52° C. for 3 hours, control without polyol = 100%, listed as 2% Inositol",8* %
same,% enzymatic activity of DispersinB (Mean),"52° C. for 3 hours, control without polyol = 100%, listed as 4% Inositol",19* %
same,% enzymatic activity of DispersinB (Mean),"52° C. for 3 hours, control without polyol = 100%, listed as 6% Inositol",37* %
same,% enzymatic activity of DispersinB (Mean),"52° C. for 3 hours, control without polyol = 100%, listed as 8% Inositol",66* %
same,% enzymatic activity of DispersinB (Mean),"52° C. for 3 hours, control without polyol = 100%, listed as 10% Inositol",77* %
same,% enzymatic activity of DispersinB (Mean),"52° C. for 3 hours, control without polyol = 100%, listed as 12% Inositol",86* %
same,% enzymatic activity of DispersinB (Mean),"52° C. for 3 hours, control without polyol = 100%, listed as 14% Inositol",92* %
"OC[C@@H](O)[C@@H](O)[C@H](O)[C@@H](O)CO [sorbitol, (2S,3R,4R,5R)-Hexane-1,2,3,4,5,6-hexol]",% enzymatic activity of DispersinB (Mean),"4° C., freshly made control without polyol = 100%, listed as Sorbitol 1%",112* %
same,% enzymatic activity of DispersinB (Mean),"4° C., freshly made control without polyol = 100%, listed as Sorbitol 2.5%",107* %
same,% enzymatic activity of DispersinB (Mean),"4° C., freshly made control without polyol = 100%, listed as Sorbitol 5%",105* %
same,% enzymatic activity of DispersinB (Mean),"4° C., freshly made control without polyol = 100%, listed as Sorbitol 10%",107* %
same,% enzymatic activity of DispersinB (Mean),"4° C., freshly made control without polyol = 100%, listed as Sorbitol 20%",110* %
same,% enzymatic activity of DispersinB (Mean),"4° C., freshly made control without polyol = 100%, listed as Sorbitol 30%",113* %
same,% enzymatic activity of DispersinB (Mean),"42° C. for 3 hours, control without polyol = 100%, listed as Sorbitol 1%",80%
same,% enzymatic activity of DispersinB (Mean),"42° C. for 3 hours, control without polyol = 100%, listed as Sorbitol 2.5%",87%
same,% enzymatic activity of DispersinB (Mean),"42° C. for 3 hours, control without polyol = 100%, listed as Sorbitol 5%",89* %
same,% enzymatic activity of DispersinB (Mean),"42° C. for 3 hours, control without polyol = 100%, listed as Sorbitol 10%",88* %
same,% enzymatic activity of DispersinB (Mean),"42° C. for 3 hours, control without polyol = 100%, listed as Sorbitol 20%",88* %
same,% enzymatic activity of DispersinB (Mean),"42° C. for 3 hours, control without polyol = 100%, listed as Sorbitol 30%",101* %
same,temperature stabilizing effect on DispersinB at elevated temperatures,,exhibited temperature stabilizing effect
same,% enzymatic activity of DispersinB (Mean),"52° C. for 3 hours, control without polyol = 100%, listed as Sorbitol 1%",6* %
same,% enzymatic activity of DispersinB (Mean),"52° C. for 3 hours, control without polyol = 100%, listed as Sorbitol 2.5%",21* %
same,% enzymatic activity of DispersinB (Mean),"52° C. for 3 hours, control without polyol = 100%, listed as Sorbitol 5%",46* %
same,% enzymatic activity of DispersinB (Mean),"52° C. for 3 hours, control without polyol = 100%, listed as Sorbitol 10%",82* %
same,% enzymatic activity of DispersinB (Mean),"52° C. for 3 hours, control without polyol = 100%, listed as Sorbitol 20%",94* %
same,% enzymatic activity of DispersinB (Mean),"52° C. for 3 hours, control without polyol = 100%, listed as Sorbitol 30%",97* %
same,% enzymatic activity of DispersinB (Mean),"62° C. for 3 hours, control without polyol = 100%, listed as Sorbitol 5%",1* %
same,% enzymatic activity of DispersinB (Mean),"62° C. for 3 hours, control without polyol = 100%, listed as Sorbitol 10%",3* %
same,% enzymatic activity of DispersinB (Mean),"62° C. for 3 hours, control without polyol = 100%, listed as Sorbitol 20%",4* %
same,% enzymatic activity of DispersinB (Mean),"62° C. for 3 hours, control without polyol = 100%, listed as Sorbitol 30%",46* %
